As usually defined, the melting point is the temperature, or range, at which the solid turns liquid.

Turning to `O=C(OCC1CO1)c1cccc(C(=O)OCC2CO2)c1` (stereo unspecified), the melting point fell in the range of 60 to 65 °C. Then `CC(C)c1nc(COC(=O)N[C@H](C(=O)N[C@@H](Cc2ccccc2)[C@@H](O)C[C@H](Cc2ccccc2)NC(=O)OCc2cncs2)C(C)C)cs1`, with 172 to 174 °C; and `NS(=O)(=O)NC(=O)N1C[C@H](NC(=O)Cc2ccccc2)C1=O`, with 137 °C. For `COc1ccc(-c2cc3ccccc3[nH]2)cc1NCc1cccc([N+](=O)[O-])c1`, the melting point lay in the range of 160 to 162 °C. Regarding `Cc1cccc(C2=NN=C(c3ccccc3Cc3ccccc3)NN2)c1`, the melting point was in the range of 162 to 163 °C. On to `CC1(C)OC(=O)Nc2ccc(-c3ccc(C#N)s3)cc21`, for which the melting point was 264 to 266 °C. Then `CCOC(=O)c1cnn(-c2cc(C)cc(C)c2)c1S(C)(=O)=O`, with 120 to 122 °C; and `CCOC(=O)C1=Cc2cc(N)ccc2OC1C(F)(F)F` (stereo unspecified), with 111 to 115 °C. `c1ccc(CN2C[C@H]3CCCC[C@@]3(Cc3ccccc3)C2)cc1` (relative stereo) gave a melting point of 156 to 158 °C. Then `O=C(O)c1cc(=O)c(Sc2ccccc2)co1`, with 178 to 181 °C; and `CCOC(=O)C(C#N)=NOC(=O)OCC(C)C`, with 60 to 62 °C; and `CCn1nc(C)c2c1C(=O)Nc1ccccc1N2C(=O)CCl`, with 208 to 210 °C.

`Cn1cc(-c2ccc(F)cc2)c(C(=O)O)n1`: the melting point lay within 146 to 147 °C. Then `CN1Cc2c(I)ncn2-c2ccc(F)cc2C1=O`, with 187 to 188 °C. `CCOC(=O)COc1ccc(Cn2c(-c3ccc(OCc4ccccc4)cc3)c(C)c3cc(OCc4ccccc4)ccc32)cc1OC` came in with a melting point of 120 to 123 °C. For `CCn1cc(C(=O)NCc2ccc(Cl)cc2)c(=O)c2ccsc21`, the melting point is 183 to 184 °C. `CC(C)(CO)CCCCC(O)CCCCC(C)(C)CO`: the melting point lay in the range of 72 to 74 °C. For `CNC(=O)C(C(F)F)C(C)(C)C=NO` (stereo unspecified), the melting point fell in the range of 53 to 58 °C. Take `COC(=O)Cc1c(OC)ccc2c1Oc1c(ccc(OC)c1C=NO)C2(C)C`: the melting point fell in the range of 234 to 236 °C. In the case of `CCOC(=O)c1c(C)nn(C)c1S(=O)(=O)NC(=S)Nc1nc(C)cc(OC)n1`, the melting point was 157 to 158 °C.

Regarding `c1ccc2nc3[nH]ncc3cc2c1`, the melting point lay within 104 to 106 °C. `CCOC(=O)c1cc(-c2csc(-c3ccnc(N(C)C)c3)n2)c(=O)[nH]c1C(C)C` came in with a melting point greater than 230 °C. Then `O=c1[nH]c2cccc(Cl)c2c(=O)n1CCCN1CC=C(c2ccc(Cl)cc2)CC1`, with 190 to 194 °C; and `O=C(CCCC1CCCCC1)C1=C(O)CSC1=O`, with 45 to 50 °C; and `CNc1ccc2sc3ccc(Br)cc3c(=O)c2c1`, with 198 to 200 °C. Turning to `Cc1ccc(-n2nccn2)c(C(=O)O)c1`, the melting point is 168 °C. Then `CCOC(=O)C(Oc1ccc(-c2ccc(Cl)cc2)cc1)(C(F)(F)F)C(F)(F)F`, with 44 to 45 °C. Then `CCc1ncnc(N[C@H]2CC[C@@H](C=O)CC2)c1Cl`, with 96 to 97 °C. Then `O=C1CCC(N2C=Nc3ccccc3CC2)C(=O)N1` (stereo unspecified), with 84 to 91 °C. In turn, `CCC/C=C/c1ccc(C#CC(C)(C)O)cc1` registered a melting point of 65 °C. Compound `CC1C=C(c2nnn[nH]2)CN(CC(=O)O)C1` (stereo unspecified) gave a melting point of 150 to 152 °C. Compound `C[C@H](NC(=O)OC(C)(C)C)[C@@H]1CCN(c2nc3c(cc2F)c(=O)[nH]c(=O)n3C2CC2)C1` came in with a melting point of 249 to 251 °C. The compound `Oc1ccc(SC2CC3CC(Sc4ccc(O)cc4)C2C3)cc1` (stereo unspecified) displayed a melting point of 142 to 146 °C.

Regarding `CN(c1ncnc2c1ncn2Cc1ccccc1F)n1cccc1`, the melting point lay within 147 to 149 °C. With `CCOC(=O)CN1C(=O)CSC1=NN=C(C)C`, the melting point is 60 to 62 °C. Regarding `Oc1cc(Cl)cc(Br)c1O`, the melting point was in the range of 71 to 73 °C. The compound `CC(C)(C)[Si](C)(C)O[C@@H]1C[C@]2(O)C[C@@H](OC2=O)C1=O` registered a melting point of 92 to 95 °C.

`N[C@@H](Cc1ccc(C(F)(F)F)cc1)[C@H](O)c1ccc(Oc2ccccc2)cc1` (racemic): the melting point lay within 114 to 115 °C.

`CC(C)(Oc1ccc2c(c1)CCc1c-2ccc2c1CCC2(C)C)C(=O)O` returned a melting point of 167 to 170 °C. Consider `CCc1ncc([N+](=O)[O-])n1CCS(=O)(=O)CC`, for which the melting point lay within 130 to 140 °C. Then `CCOC(=O)C(=O)CC(=O)CC(=O)c1ccc(C)cc1`, with 76 °C; and `CCCC1N=C2C(=C(C)C(Cl)=NC2(N)CCOCCNC(=O)c2ccccc2)N1` (stereo unspecified), with 188 to 189 °C; and `Cc1ccc(C(=O)O)c(Nc2ccc3cn[nH]c3c2)n1`, with 273 to 274 °C.

`Cc1ccc(C(=O)/C=C/c2c(-c3ccc(F)cc3)nc3sccn23)cc1C`: the melting point lay in the range of 210 to 213 °C. `COc1c(Cl)ccc(-c2cc(N)c(Cl)c(CNCC(=O)O)n2)c1F` registered a melting point of 189 to 191 °C.

Consider `Cn1nc(-c2cc([N+](=O)[O-])cc([N+](=O)[O-])c2)cc1O`, for which the melting point lay within 230 to 231 °C. Then `COc1ccc([N+](=O)[O-])c(CS(=O)(=O)c2ccccc2)n1`, with 147 to 149 °C.

Turning to `CCCCCC(=O)c1cn(S(=O)(=O)c2ccc(C)cc2)c2ccccc12`, the melting point lay in the range of 91 to 93 °C.

`COC(=O)c1cc(C#N)ccc1NC(=O)c1cccc(S(=O)(=O)N2CCOCC2)c1` displayed a melting point of 184 to 185 °C. In the case of `O=C(O)CN(CC(=O)O)CC(=O)Nc1cc(C(F)(F)F)cc(C(F)(F)F)c1`, the melting point was 201 °C.

Regarding `CCOC(=O)CNC(=O)CCc1cc(Cl)ccc1C(=O)CCCNC(C)=O`, the melting point worked out at 96 °C. Then `Nc1ncc2cc(-c3c(F)cccc3F)c(N)nc2n1`, with greater than 300 °C. `COC(=O)CCCc1cc2nc(Cl)ccc2n1S(=O)(=O)c1ccc(-n2cccn2)cc1` returned a melting point of 122 to 124 °C.

`N#Cc1cnn2c(C(F)(F)F)cc(-c3ccc(F)c(C(F)(F)F)c3)nc12` came in with a melting point of 204 °C.

The compound `O=C(O)c1cnc(-c2ccc(Cl)cc2)s1` had a melting point of 233 to 234 °C.

On to `CCCCCCNCCCS(=O)(=O)O`, for which the melting point is 144 to 147 °C.

As for `CCOC(=O)CC(=O)c1ccc(-c2ccccc2)cc1`, the melting point lay within 75 to 77 °C. Then `CC(=O)c1cn(C)cc(-c2cccc(Br)c2)c1=O`, with 192 to 194 °C.

`Cc1c(O)cc2c(c1C)N(C=O)CC2` registered a melting point of 192 to 193 °C. The compound `CC(C)n1cc(-c2ccc(C(O)c3ccccc3)cc2)c2c(N)ncnc21` (stereo unspecified) had a melting point of 279 to 281 °C.

`O=C(O)c1ccc(CC(NC(=O)C(c2ccccc2)c2ccccc2)c2ccccc2)cc1` (stereo unspecified): the melting point is 245 to 248 °C. In turn, `c1c(C2CC2)n[nH]c1C1CC1` came in with a melting point of 161 to 164 °C. Then `Cc1cccc(NCCC#N)c1C`, with 65.5 to 67 °C; and `Fc1ccc(Oc2ncccc2COCc2ccccc2)cc1`, with 49 to 50 °C; and `O=c1oc(-c2ccc(Sc3ccccc3)cc2)cc(O)c1SCCc1ccccc1`, with 120 to 121 °C. Then `O=C(N[C@H](Cc1ccc(F)cc1)[C@@H](O)c1ccc(C(F)(F)F)cc1)c1ccc(F)c2ccccc12` (racemic), with 235 to 236 °C; and `CC(=O)c1cc2c(Cl)cc(F)c(-n3c(=O)cc(C(F)(F)F)n(C)c3=O)c2o1`, with 193 to 194 °C. Then `CC(C)Cn1c(=O)n(C)c(=O)c2c(SCCCC#N)n(Cc3cccc4ccccc34)cc21`, with 127 to 128 °C. `CC(=O)N1C(C)(C)CC(N2CCCCCC2=O)CC1(C)C` returned a melting point of 104 to 108 °C. On to `COc1cc(OC)c2c(C)c(CCN3CCN(c4ccccc4OC)CC3)c(=O)oc2c1`, for which the melting point lay within 140 to 142 °C. Then `CC(=O)n1cc(C2=CCN(C)CC2)c2cc(F)ccc21`, with 126 to 128 °C. Then `CCOC(=O)CCN1C(=O)C(NC(=O)Nc2ccc(Cl)cc2)N=C(c2ccccc2)c2ccccc21` (stereo unspecified), with 251 to 253 °C.

`COc1ccccc1Oc1c(Cl)nc(N2CCOCC2)nc1NS(=O)(=O)c1ccc(C(C)C)cn1` showed a melting point of 168 to 176 °C. Then `COC(C)c1ccc(-c2ccc(O)cc2)cc1` (single isomer, unassigned; (+)), with 174 to 175 °C; and `Cc1n[nH]c(-c2ccc(Br)cc2)c1NC(=O)c1cccnc1`, with 262 to 264 °C. Then `CC(=O)N[C@H]1c2cc(C#N)ccc2OC(C)(C)[C@H]1O` (relative stereo), with 193 to 194 °C; and `COc1ccc(C(=C/C=C/C(=O)Nc2ccc(-c3cccnc3)cc2)c2ccc(OC)cc2)cc1`, with 210 to 212 °C; and `O=C(O)c1ccc2c(c1)S(=O)(=O)N=C(n1ccnc1)N2`, with greater than 300 °C.

In turn, `CSc1nnc(-c2ccc3occ(-c4ccc(OC(F)(F)F)cc4)c3c2)o1` displayed a melting point of 138 to 139 °C.

For `COc1ccc2c(c1)CCCC2(N)C(=O)O` (stereo unspecified), the melting point was greater than 250 °C. Then `C=CCC(C#N)(C#N)Cc1ccc(Br)cc1`, with 61.7 °C. Then `CCn1ncc2c1ncc1c(NC)nc3ncnn3c12`, with greater than 300 °C; and `O=C(CSC(=S)N1Cc2[nH]c3ccccc3c2CC1C(=O)O)c1ccccc1` (stereo unspecified), with 116 °C.

Consider `COc1ccc(S(=O)(=O)Nc2ccccc2/C=C/c2ccncc2)cc1`, for which the melting point was in the range of 207 to 209 °C. Then `COC(CN(c1nc2ccccc2o1)[C@H]1c2cc(C#N)ccc2OC(C)(C)[C@@H]1O)OC`, with 66 °C. Then `O=C(c1nnc(-c2ccccc2)o1)N1CC(Oc2ccc(CN3CC4(COC4)C3)c(Cl)c2)C1`, with 114 to 124 °C. Then `COc1cc2ncnc(NS(=O)(=O)c3ccc(Br)cc3)c2cc1OC`, with 241 to 242 °C; and `CNC(c1nc(-c2ccc3c(c2)Nc2ccccc2S3)cs1)C(C)C` (stereo unspecified), with 130 °C. In the case of `COC=C1CCC(c2ccc(C(=O)OC)cc2)CC1` (stereo unspecified), the melting point came to 58 °C.

In the case of `CC(C)OC(=O)N1CCC(c2nc3cc(-c4ccc(C(F)(F)F)cc4)ccc3o2)CC1`, the melting point is 123 to 126 °C. In turn, `CC(C)(C)NCC(O)COc1ccccc1-c1ccc(=O)[nH]n1` (stereo unspecified) came in with a melting point of 162 to 164 °C.

Source of the values: a melting point compilation (Tetko et al.; mined from patent text by program, amines drawn as free bases though some values may be those of a salt).
